Test results from PubChem BioAssay AID248 (DTP/NCI, 2004).
Inconclusive results and toxic doses are left out. Rule as the data show it: active = T/C of 150% or more; inactive = T/C below 125%.

Test system: L1210 leukemia ip in BDF1 mice, survival T/C
Assay: NCI In Vivo Anticancer Drug Screen. Data for tumor model L1210 Leukemia (intraperitoneal) in B6D2F1 (BDF1) mice
Conditions: endpoint: mean survival time, higher = longer survival
How it was run: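 Ratio derived from survival: compound-dosed mice over vehicle-dosed mice, all bearing a transplantable tumor.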

[1] = dose: 25.0 mg/kg/injection, schedule: Q01DX009 (ip), vehicle: saline with Tween-80
[2] = dose: 50.0 mg/kg/injection, schedule: Q01DX009 (ip), vehicle: saline with Tween-80
[3] = dose: 100.0 mg/kg/injection, schedule: Q01DX001 (ip), vehicle: saline
[4] = dose: 100.0 mg/kg/injection, schedule: Q01DX009 (ip), vehicle: Klucel (hydroxypropylcellulose) (HPC)
[5] = dose: 100.0 mg/kg/injection, schedule: Q01DX009 (ip), vehicle: saline with Tween-80
[6] = dose: 100.0 mg/kg/injection, schedule: Q04DX003 (ip), vehicle: Klucel (hydroxypropylcellulose) (HPC)
[7] = dose: 100.0 mg/kg/injection, schedule: Q04DX003 (ip), vehicle: saline with Tween-80
[8] = dose: 200.0 mg/kg/injection, schedule: Q01DX001 (ip), vehicle: saline
[9] = dose: 200.0 mg/kg/injection, schedule: Q01DX009 (ip), vehicle: saline with Tween-80
[10] = dose: 400.0 mg/kg/injection, schedule: Q01DX009 (ip), vehicle: saline with Tween-80
[11] = dose: 100.0 mg/kg/injection, schedule: Q04DX003 (ip), vehicle: saline sonified
[12] = dose: 200.0 mg/kg/injection, schedule: Q04DX003 (ip), vehicle: saline sonified
[13] = dose: 400.0 mg/kg/injection, schedule: Q04DX003 (ip), vehicle: saline sonified
[14] = dose: 100.0 mg/kg/injection, schedule: Q01DX009 (ip), vehicle: saline
[15] = dose: 200.0 mg/kg/injection, schedule: Q01DX009 (ip), vehicle: saline
[16] = dose: 400.0 mg/kg/injection, schedule: Q01DX009 (ip), vehicle: saline
[17] = dose: 200.0 mg/kg/injection, schedule: Q04DX003 (ip), vehicle: Klucel (hydroxypropylcellulose) (HPC)
[18] = dose: 400.0 mg/kg/injection, schedule: Q04DX003 (ip), vehicle: Klucel (hydroxypropylcellulose) (HPC)
[19] = dose: 400.0 mg/kg/injection, schedule: Q01DX001 (ip), vehicle: saline

Measured: T/C

CCN(CC)CCOc1cc(C)ccc1C(C)C
inactive: [1] 93 % of control | dose: 50.0 mg/kg/injection, schedule: Q01DX009 (ip), vehicle: Klucel (hydroxypropylcellulose) (HPC) 102 % of control | [2] 93 % of control | dose: 50.0 mg/kg/injection, schedule: Q04DX003 (ip), vehicle: Klucel (hydroxypropylcellulose) (HPC) 100 % of control | dose: 50.0 mg/kg/injection, schedule: Q04DX003 (ip), vehicle: saline with Tween-80 100 % of control | [3] 98 % of control | [4] 103 % of control | [5] 113 % of control | [6] 96 % of control | [7] 95 % of control | [8] 113 % of control

COC(=O)C(C)CSCc1ccccc1 (stereo not given)
inactive: dose: 100.0 mg/kg/injection, schedule: Q04DX002 (ip), vehicle: saline 108 % of control | dose: 400.0 mg/kg/injection, schedule: Q04DX002 (ip), vehicle: saline 89 % of control

NC(=O)c1ncc(-c2ccc(Cl)cc2)[nH]c1=O
inactive: [5] 91 % of control | [9] 97 % of control | [10] 97 % of control

CCCCCCCCCCCCCCCC(CCCC)c1ccccc1 (stereo not given)
inactive: dose: 100.0 mg/kg/injection, schedule: Q01DX001 (ip), vehicle: saline + alcohol 91 % of control | dose: 200.0 mg/kg/injection, schedule: Q01DX001 (ip), vehicle: saline + alcohol 100 % of control | dose: 400.0 mg/kg/injection, schedule: Q01DX001 (ip), vehicle: saline + alcohol 96 % of control

O=C(C(Br)C(Br)c1ccccc1)C(Br)C(Br)c1ccccc1 (stereo not given)
inactive: [11] 101 % of control | [12] 105 % of control | [13] 97 % of control

CS(=O)(=O)c1ccc(C(=N)N)cc1
inactive: [14] 93 % of control | [15] 97 % of control | [16] 95 % of control

CCC(C#N)c1ccccc1 (stereo not given)
inactive: [4] 103 % of control | [6] 110 % of control | dose: 200.0 mg/kg/injection, schedule: Q01DX009 (ip), vehicle: Klucel (hydroxypropylcellulose) (HPC) 92 % of control | [17] 119 % of control | dose: 400.0 mg/kg/injection, schedule: Q01DX009 (ip), vehicle: Klucel (hydroxypropylcellulose) (HPC) 103 % of control | [18] 96 % of control

O=[N+]([O-])C1CCCCC1O (stereo not given)
inactive: dose: 10.0 mg/kg/injection, schedule: Q01DX001 (ip), vehicle: saline 103 % of control | dose: 20.0 mg/kg/injection, schedule: Q01DX001 (ip), vehicle: saline 105 % of control | dose: 40.0 mg/kg/injection, schedule: Q01DX001 (ip), vehicle: saline 100 % of control

Nc1cccc(C(=O)O)c1C(=O)O
inactive: dose: 6.25 mg/kg/injection, schedule: Q01DX009 (ip), vehicle: saline with Tween-80 100 % of control | dose: 12.5 mg/kg/injection, schedule: Q01DX009 (ip), vehicle: saline with Tween-80 96 % of control | [1] 91 % of control | dose: 75.0 mg/kg/injection, schedule: Q01DX001 (ip), vehicle: carboxymethylcellulose (CMC) 91 % of control | [6] 100 % of control | dose: 150.0 mg/kg/injection, schedule: Q01DX001 (ip), vehicle: carboxymethylcellulose (CMC) 94 % of control | [17] 91 % of control

Cc1ccc(S(=O)(=O)OCC2OC3(COS(=O)(=O)c4ccc(C)cc4)OC(C)(C)OC3C2O)cc1 (stereo not given)
inactive: [1] 92 % of control | [2] 87 % of control | [5] 87 % of control

N#CSCCC(c1ccccc1)(c1ccccc1)c1ccccc1
inactive: [2] 90 % of control | [5] 90 % of control | [9] 90 % of control

O=[N+]([O-])c1ccc(OCCCCOc2ccccc2)c(Cl)c1
inactive: [6] 95 % of control | [17] 96 % of control | [18] 91 % of control

O=C(C(=O)c1ccc(O)cc1O)c1ccc(O)cc1O
inactive: [3] 97 % of control | [8] 97 % of control | [19] 97 % of control

O=[N+]([O-])/C=C/c1ccc(F)cc1
inactive: dose: 75.0 mg/kg/injection, schedule: Q01DX001 (ip), vehicle: alcohol 100 % of control

CCOC(=O)Nc1cccc(Cl)c1Cl
inactive: [7] 101 % of control | dose: 200.0 mg/kg/injection, schedule: Q04DX003 (ip), vehicle: saline with Tween-80 98 % of control | dose: 400.0 mg/kg/injection, schedule: Q04DX003 (ip), vehicle: saline with Tween-80 93 % of control

Fc1c(F)c(F)c(Oc2c(F)c(F)c(P(c3c(F)c(F)c(Oc4c(F)c(F)c(F)c(F)c4F)c(F)c3F)c3c(F)c(F)c(Oc4c(F)c(F)c(F)c(F)c4F)c(F)c3F)c(F)c2F)c(F)c1F
inactive: dose: 75.0 mg/kg/injection, schedule: Q04DX003 (ip), vehicle: Klucel (hydroxypropylcellulose) (HPC) 104 % of control | dose: 150.0 mg/kg/injection, schedule: Q04DX003 (ip), vehicle: Klucel (hydroxypropylcellulose) (HPC) 91 % of control | dose: 300.0 mg/kg/injection, schedule: Q04DX003 (ip), vehicle: Klucel (hydroxypropylcellulose) (HPC) 90 % of control

O=C(O)C(O)C(O)C(O)C(O)C(O)CO.[Cu+2] (stereo not given)
inactive: dose: 30.0 mg/kg/injection, schedule: Q01DX001 (ip), vehicle: saline 91 % of control

COc1ccc(CNCCCCO)cc1
inactive: dose: 50.0 mg/kg/injection, schedule: Q01DX009 (ip), vehicle: other 106 % of control | dose: 100.0 mg/kg/injection, schedule: Q01DX001 (ip), vehicle: other 104 % of control | dose: 100.0 mg/kg/injection, schedule: Q01DX009 (ip), vehicle: other 102 % of control | dose: 200.0 mg/kg/injection, schedule: Q01DX001 (ip), vehicle: other 106 % of control | dose: 200.0 mg/kg/injection, schedule: Q01DX009 (ip), vehicle: other 95 % of control | dose: 400.0 mg/kg/injection, schedule: Q01DX001 (ip), vehicle: other 97 % of control

CC(OC1OC(C(=O)O)C(O)C(O)C1O)c1ccccc1 (stereo not given)
inactive: [14] 98 % of control | [15] 97 % of control | [16] 105 % of control

O=c1c(O)c(-c2ccc(O)cc2O)oc2cc(O)cc(O)c12
inactive: [5] 103 % of control | [9] 98 % of control | [10] 90 % of control

ClC(Cl)(Cl)C(N1CCN(c2ccccc2)CC1)N1CCN(c2ccccc2)CC1
inactive: dose: 100.0 mg/kg/injection, schedule: Q01DX001 (ip), vehicle: carboxymethylcellulose (CMC) 101 % of control | dose: 200.0 mg/kg/injection, schedule: Q01DX001 (ip), vehicle: carboxymethylcellulose (CMC) 106 % of control | dose: 400.0 mg/kg/injection, schedule: Q01DX001 (ip), vehicle: carboxymethylcellulose (CMC) 89 % of control

CC(=O)OCCC(CCCl)OC(C)=O (stereo not given)
inactive: dose: 100.0 mg/kg/injection, schedule: Q04DX002 (ip), vehicle: saline with Tween-80 111 % of control | dose: 200.0 mg/kg/injection, schedule: Q04DX002 (ip), vehicle: saline with Tween-80 104 % of control | dose: 400.0 mg/kg/injection, schedule: Q04DX002 (ip), vehicle: saline with Tween-80 93 % of control

CCOC(=O)NC12c3ccccc3C(c3ccccc31)C(C(=O)O)C2C(=O)O (stereo not given)
inactive: [11] 90 % of control | [12] 119 % of control | [13] 90 % of control

Oc1ccccc1C=Nc1ccc(N=Cc2ccccc2O)cc1
inactive: [3] 101 % of control | [8] 95 % of control | [19] 106 % of control
